# Tested on: hypoxic cells
# Experiment: not given
# Settings: administered in human beings; cited from earlier work
row,SMILES,sensitizing effect in human beings
1,"COCC(O)Cn1ccnc1[N+](=O)[O-] (stereo not drawn) [Misonidazole, 1-(2-Nitro-1-imidazolyl)-3-methoxy-2-propanol]",No sensitizing effect was confirmed

# Tested on: hypoxic cells
# Experiment: not given
# Settings: versus no Misonidazole; cited from earlier work
row,SMILES,effectiveness as hypoxic cell sensitizer
1,"COCC(O)Cn1ccnc1[N+](=O)[O-] (stereo not drawn) [Misonidazole, 1-(2-Nitro-1-imidazolyl)-3-methoxy-2-propanol]",about twice as effective as when no Misonidazole is used

# Tested on: EMT-6 tumor cells
# Experiment: Radiosensitization effect on tumor transplanted in animal (ER in vivo)
# Design: species or system Balb/c mouse
# Settings: in a low concentration
# Protocol: To both thighs of male Balb/c mouse (8 weeks; 4 mice in a group), 10^5 of EMT-6 tumor cells were subcutaneously inoculated. After the diameter of the tumor reached about 1 cm, a solution of a compound to be examined in saline was intraperitonealy administered (200 mg/kg). After 40 minutes from the administration, X-ray was irradiated at a dose rate of 450 rad/min. for 5 minutes and then the mouse was sacrificed.
# After the mouse was systemically sterilized, the tumor was taken out and the tissue was homogenated. Then, 22 ml of trypsin was added to the homogenate and stirred for 50 minutes at 37° C. The number of cells in the supernatant was counted. A predetermined amount of the cells was introduced in a plastic plate having a diameter of about 5 cm. To the plate, 5 ml of medium was added and cultured in a CO2 incubator. The plates containing the irradiated and unirradiated cells were removed from the incubator after 9 days and 10 days incubation, respectively. The cells were fixed by methanol and stained by Giemsa stain. Then, the number of colonies formed were counted.
# The survival rate was calculated with using the unirradiated cells as control.
row,SMILES,ER in vivo in comparison with comparative compounds (1) and (2)
1,"O=[N+]([O-])c1ncn(CC(O)CF)n1 (stereo not drawn) [(13), 1-(3'-fluoro-2'-hydroxypropyl)-3-nitro-1,2,4-triazole]",comparable

# Tested on: not listed separately
# Experiment: in vivo
# Settings: not given
row,SMILES,LD50
1,"COCCNC(=O)C(F)(F)Cn1cnc([N+](=O)[O-])n1 [(2), 3-(3'-nitro-1',2',4'-triazol-1'-yl)-2,2-difluoropropionic acid methoxyethylamide]",> 3000 mg/kg
2,"NC(=O)CCNC(=O)C(F)(F)Cn1cnc([N+](=O)[O-])n1 [(62), 1-(3'-nitro-1',2',4'-triazol-1'-yl)-2,2-difluoropropionic acid 3-alanylamide]",1500 mg/kg
3,"NC(=O)C(F)(F)Cn1cnc([N+](=O)[O-])n1 [(43), 3-(3'-nitro-1',2', 4'-triazol-1'-yl)-2,2-difluoropropionamide]",700 mg/kg
4,"COCC(F)Cn1cnc([N+](=O)[O-])n1 (stereo not drawn) [(7), 1-(2'-fluoro-3'-methoxypropyl)-3-nitro-1,2,4-triazole]",> 2000 mg/kg
5,"O=[N+]([O-])c1ncn(CC(F)COCC(O)CO)n1 (stereo not drawn) [(65), 1-(2'-fluoro-4'-oxo-6',7'-dihydroxyheptyl)-3-nitro-1,2,4-triazole]",1600 mg/kg
6,"CC(O)CNC(=O)C(F)(F)Cn1cnc([N+](=O)[O-])n1 (stereo not drawn) [(60), 3-(3'-nitro-1', 2', 4'-triazol-1'-yl)-2,2-difluoropropionic acid isopropanolamide]",1200 mg/kg
7,"O=[N+]([O-])c1ncn(CC(O)CF)n1 (stereo not drawn) [(13), 1-(3'-fluoro-2'-hydroxypropyl)-3-nitro-1,2,4-triazole]",700 mg/kg
8,"CC(C)NC(=O)C(F)(F)Cn1cnc([N+](=O)[O-])n1 [(53), 3-(3'-nitro-1', 2', 4'-triazol-1'-yl)-2,2-difluoropropionic acid isopropylamide]",600 mg/kg
9,"O=C(NCCO)C(F)(F)Cn1cnc([N+](=O)[O-])n1 [(3), 3-(3'-nitro-1',2',4'-triazol-1'-yl)-2,2-difluoropropionic acid hydroxyethylamide]",1600 mg/kg
